Laboratory results from article PMC8185074, “Anchor extension: a structure-guided approach to design cyclic peptides targeting enzyme active sites” (Nature Communications, 2021).
Peptide text beside a SMILES is read from it.

Columns and labels:
Assay type in all cases: biochemical
HDAC2 [1] = target: T1, HDAC2 (Homo sapiens, UniProt Q92769); assay: HDAC2 inhibition, full IC50 measurement (Reaction Biology; fluorogenic p53 peptide RHKK(Ac)AMC); conditions: for HDAC2 activity raw data (signal): single trial
T1 construct: purchased Reaction Biology Corporation (assay run by the CRO)
T1 sequence (Q92769 whole entry): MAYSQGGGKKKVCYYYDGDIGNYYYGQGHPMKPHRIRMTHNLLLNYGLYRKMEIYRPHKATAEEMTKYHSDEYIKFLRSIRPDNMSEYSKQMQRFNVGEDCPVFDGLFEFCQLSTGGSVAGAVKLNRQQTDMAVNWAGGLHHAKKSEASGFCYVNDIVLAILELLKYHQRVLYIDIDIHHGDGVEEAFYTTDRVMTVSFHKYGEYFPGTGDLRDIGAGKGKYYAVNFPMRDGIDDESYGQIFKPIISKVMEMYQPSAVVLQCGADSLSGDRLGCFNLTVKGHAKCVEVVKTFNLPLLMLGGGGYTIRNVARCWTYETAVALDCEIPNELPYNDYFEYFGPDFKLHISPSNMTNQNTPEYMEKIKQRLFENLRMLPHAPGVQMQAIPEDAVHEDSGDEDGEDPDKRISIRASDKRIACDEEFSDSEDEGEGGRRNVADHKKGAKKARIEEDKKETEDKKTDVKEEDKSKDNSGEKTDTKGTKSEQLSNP
Summary of the method: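 Reaction: enzyme plus acoustically dispensed peptide inhibitor, 50 μM RHKK(Ac)AMC substrate, pH 8.0 Tris buffer with BSA and 1% DMSO, 1 h, 30 °C. Duplicates averaged.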

HDAC6 = target: T2, HDAC6 (Homo sapiens, UniProt Q9UBN7); assay: HDAC6 inhibition, full IC50 measurement (Reaction Biology; fluorogenic p53 peptide RHKK(Ac)AMC); conditions: single trial
T2 construct: purchased Reaction Biology Corporation (assay run by the CRO)
T2 sequence (Q9UBN7 1-1215): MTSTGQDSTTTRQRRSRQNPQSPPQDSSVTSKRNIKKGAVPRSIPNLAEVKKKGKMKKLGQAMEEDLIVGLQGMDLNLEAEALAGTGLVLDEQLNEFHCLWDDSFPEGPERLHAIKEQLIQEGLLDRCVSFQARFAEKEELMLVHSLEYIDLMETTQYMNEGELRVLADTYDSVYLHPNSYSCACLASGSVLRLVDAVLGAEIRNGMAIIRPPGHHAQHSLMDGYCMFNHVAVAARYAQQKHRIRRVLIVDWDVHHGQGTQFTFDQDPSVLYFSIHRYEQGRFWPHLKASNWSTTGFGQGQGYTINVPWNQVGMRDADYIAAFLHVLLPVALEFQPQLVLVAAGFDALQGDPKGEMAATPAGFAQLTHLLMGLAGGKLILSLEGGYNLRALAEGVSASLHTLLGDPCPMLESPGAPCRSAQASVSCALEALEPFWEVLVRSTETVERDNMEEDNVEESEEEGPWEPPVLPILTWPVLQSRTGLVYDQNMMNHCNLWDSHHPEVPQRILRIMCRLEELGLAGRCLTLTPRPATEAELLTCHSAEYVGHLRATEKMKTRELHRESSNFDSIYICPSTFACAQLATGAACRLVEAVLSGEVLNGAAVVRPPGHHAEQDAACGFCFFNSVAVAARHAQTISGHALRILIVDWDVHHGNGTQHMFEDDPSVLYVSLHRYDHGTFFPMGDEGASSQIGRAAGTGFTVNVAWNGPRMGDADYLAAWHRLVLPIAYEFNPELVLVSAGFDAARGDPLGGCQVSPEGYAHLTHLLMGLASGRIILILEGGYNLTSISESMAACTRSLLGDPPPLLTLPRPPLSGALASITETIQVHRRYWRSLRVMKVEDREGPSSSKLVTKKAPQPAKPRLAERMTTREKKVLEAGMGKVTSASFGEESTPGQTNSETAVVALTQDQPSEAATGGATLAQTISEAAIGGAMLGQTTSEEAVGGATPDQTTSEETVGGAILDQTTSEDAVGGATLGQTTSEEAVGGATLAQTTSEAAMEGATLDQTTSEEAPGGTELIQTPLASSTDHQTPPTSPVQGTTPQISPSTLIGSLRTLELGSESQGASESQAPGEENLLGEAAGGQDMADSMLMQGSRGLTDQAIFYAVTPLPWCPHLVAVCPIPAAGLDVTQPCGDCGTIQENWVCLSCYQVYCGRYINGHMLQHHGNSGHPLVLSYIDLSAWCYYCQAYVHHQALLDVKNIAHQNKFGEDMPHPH
Procedure: (§1) The assay was performed using 50 μM fluorogenic peptide from p53 residues 379-382 [RHKK(Ac)AMC] in a base reaction buffer of 50 mM Tris-HCl at pH 8.0, 137 mM NaCl, 2.7 mM KCl, 1 mM MgCl2, and freshly added 1 mg/ml BSA and 1% DMSO. Peptides were first dissolved in DMSO and then added to the reaction mixture with the enzyme using acoustic technique, enough to reach the desired concentration for that assay point. Peptide concentrations were calculated based on mass of lyophilized peptide and its molecular weight. The substrate was then added and incubated for 1 hour at 30 °C in a sealed container. After the incubation, developer was added to stop the reaction and develop color. Kinetic measurements were then performed for 20 min with Envision with 5 min intervals (Ex/Em = 360/460 nm). The endpoint after plateau was taken for IC50 measurement.
(§2) In cases where duplicate measures are used, average data is reported in the main text or Supplementary Tables.

HDAC3 = target: T3, HDAC3 (Homo sapiens, UniProt O15379); assay: HDAC3 inhibition, full IC50 measurement (Reaction Biology; fluorogenic p53 peptide RHKK(Ac)AMC); conditions: single trial
T3 construct: purchased Reaction Biology Corporation (assay run by the CRO)
T3 sequence (O15379 whole entry): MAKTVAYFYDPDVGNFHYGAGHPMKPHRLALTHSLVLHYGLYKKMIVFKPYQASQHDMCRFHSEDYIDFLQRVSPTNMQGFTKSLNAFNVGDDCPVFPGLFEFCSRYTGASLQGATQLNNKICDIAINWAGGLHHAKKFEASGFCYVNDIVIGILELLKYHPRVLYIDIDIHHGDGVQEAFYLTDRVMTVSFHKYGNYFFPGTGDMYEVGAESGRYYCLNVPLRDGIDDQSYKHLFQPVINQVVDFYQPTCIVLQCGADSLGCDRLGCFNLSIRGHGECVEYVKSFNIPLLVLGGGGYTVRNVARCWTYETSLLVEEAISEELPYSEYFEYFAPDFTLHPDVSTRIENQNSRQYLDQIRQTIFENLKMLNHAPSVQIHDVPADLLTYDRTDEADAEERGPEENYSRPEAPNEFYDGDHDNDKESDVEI
T3 sequence (Q9Y618 395-489 partner limits assumed): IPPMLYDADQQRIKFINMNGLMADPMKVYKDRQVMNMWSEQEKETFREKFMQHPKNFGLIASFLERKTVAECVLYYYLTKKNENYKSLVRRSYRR
Procedure: as §1, §2

HDAC2 [2] = target: T1, HDAC2; assay: Initial HDAC2 IC50 estimate (BPS Biosciences HDAC fluorogenic assay kit); conditions: Supplementary Dataset 2; read-out: HDAC2 activity (initial activity)
Procedure: Initial IC50 values were estimated using HDAC fluorogenic assay kits from BPS Biosciences (HDAC2, HDAC4, and HDAC6) following the protocol described in the kit. All the measures were performed in duplicates or triplicates. These measurements were done either on full range of concentrations (1:10 dilution from 1 µM to 100 pM) or on two concentrations only (20 nM and 200 nM) as an estimate of the range. […] Source Data are provided as a Source Data file.

| Structure (SMILES) | 2-Selectivity: fold potency for HDAC2 over HDAC6 (HDAC2 [1]) | HDAC2 activity raw data (signal) (HDAC2 [1]; Conc. 1.00E-04 M) | HDAC2 activity raw data (signal) (HDAC2 [1]; Conc. 1.11E-05 M) | HDAC2 activity raw data (signal) (HDAC2 [1]; Conc. 1.23E-06 M) | HDAC2 activity raw data (signal) (HDAC2 [1]; Conc. 1.37E-07 M) | HDAC2 activity raw data (signal) (HDAC2 [1]; Conc. 1.52E-08 M) | HDAC2 activity raw data (signal) (HDAC2 [1]; Conc. 3.33E-05 M) | HDAC2 activity raw data (signal) (HDAC2 [1]; Conc. 3.70E-06 M) | HDAC2 activity raw data (signal) (HDAC2 [1]; Conc. 4.12E-07 M) | HDAC2 activity raw data (signal) (HDAC2 [1]; Conc. 4.57E-08 M) | HDAC2 activity raw data (signal) (HDAC2 [1]; Conc. 5.08E-09 M) | HDAC6 activity raw data (signal) (HDAC6; Conc. 1.00E-04 M) | HDAC6 activity raw data (signal) (HDAC6; Conc. 1.11E-05 M) | HDAC6 activity raw data (signal) (HDAC6; Conc. 1.23E-06 M) | HDAC6 activity raw data (signal) (HDAC6; Conc. 1.37E-07 M) | HDAC6 activity raw data (signal) (HDAC6; Conc. 1.52E-08 M) | HDAC6 activity raw data (signal) (HDAC6; Conc. 3.33E-05 M) | HDAC6 activity raw data (signal) (HDAC6; Conc. 3.70E-06 M) | HDAC6 activity raw data (signal) (HDAC6; Conc. 4.12E-07 M) | HDAC6 activity raw data (signal) (HDAC6; Conc. 4.57E-08 M) | other results |
| --- | --- | --- | --- | --- | --- | --- | --- | --- | --- | --- | --- | --- | --- | --- | --- | --- | --- | --- | --- | --- | --- |
| NCCCC[C@@H]1NC(=O)[C@@H](CC(N)=O)NC(=O)[C@H]2CCCN2C(=O)[C@@H](Cc2c[nH]cn2)NC(=O)[C@H](Cc2ccc(O)cc2)NC(=O)[C@H](CCCCCS)NC(=O)[C@H](CCc2ccccc2)NC1=O [des3.2.4, SHA-Tyr-dHis-dPro-dAsn-Lys-C27] (HELM PEPTIDE1{K.[O=C([C@H](CCc1ccccc1)N[*:1])[*:2]].[O=C([C@H](CCCCCS)N[*:1])[*:2]].Y.[dH].[dP].[dN]}$PEPTIDE1,PEPTIDE1,1:R1-7:R2$$$V2.0) | 0.43 fold | -2073 | 877 | 16887 | 156676 | 359436 | -5431 | -8111 | 83192 | 254992 | 399941 | -2801 | -1849 | 4374 | 43765 | 190706 | -563 | -1989 | 12736 | 97833 | HDAC6 activity raw data (signal) (HDAC6; Conc. 5.08E-09 M): 278125; HDAC3 activity raw data (signal) (HDAC3; Conc. 1.00E-04 M): -9402; HDAC3 activity raw data (signal) (HDAC3; Conc. 1.11E-05 M): 593; HDAC3 activity raw data (signal) (HDAC3; Conc. 1.23E-06 M): 35444; HDAC3 activity raw data (signal) (HDAC3; Conc. 1.37E-07 M): 204357; HDAC3 activity raw data (signal) (HDAC3; Conc. 1.52E-08 M): 337866; HDAC3 activity raw data (signal) (HDAC3; Conc. 3.33E-05 M): -3894; HDAC3 activity raw data (signal) (HDAC3; Conc. 3.70E-06 M): 11659; HDAC3 activity raw data (signal) (HDAC3; Conc. 4.12E-07 M): 78893; HDAC3 activity raw data (signal) (HDAC3; Conc. 4.57E-08 M): 259781; HDAC3 activity raw data (signal) (HDAC3; Conc. 5.08E-09 M): 427232; IC50 (HDAC2 [2]): 0.054 µM |
| N=C(N)NCCC[C@H]1NC(=O)[C@H]2CCCN2C(=O)[C@@H](Cc2c[nH]cn2)NC(=O)[C@H](Cc2ccc(O)cc2)NC(=O)[C@H](CCCCCS)NC(=O)[C@H](CCc2ccccc2)NC(=O)[C@H](CCCCN)NC1=O [des3.2.5, SHA-Tyr-dHis-dPro-dArg-Lys-C27] (HELM PEPTIDE1{K.[O=C([C@H](CCc1ccccc1)N[*:1])[*:2]].[O=C([C@H](CCCCCS)N[*:1])[*:2]].Y.[dH].[dP].[dR]}$PEPTIDE1,PEPTIDE1,1:R1-7:R2$$$V2.0) | 0.40 fold | -10024 | -3664 | 23341 | 186535 | 378556 | -4061 | 7985 | 87059 | 320609 | 410566 | -6596 | -4177 | 2489 | 40408 | 187931 | -7167 | 1736 | 17454 | 101146 | HDAC6 activity raw data (signal) (HDAC6; Conc. 5.08E-09 M): 300973; HDAC3 activity raw data (signal) (HDAC3; Conc. 1.00E-04 M): -14418; HDAC3 activity raw data (signal) (HDAC3; Conc. 1.11E-05 M): 6191; HDAC3 activity raw data (signal) (HDAC3; Conc. 1.23E-06 M): 36941; HDAC3 activity raw data (signal) (HDAC3; Conc. 1.37E-07 M): 210610; HDAC3 activity raw data (signal) (HDAC3; Conc. 1.52E-08 M): 383928; HDAC3 activity raw data (signal) (HDAC3; Conc. 3.33E-05 M): -3999; HDAC3 activity raw data (signal) (HDAC3; Conc. 3.70E-06 M): 13003; HDAC3 activity raw data (signal) (HDAC3; Conc. 4.12E-07 M): 93966; HDAC3 activity raw data (signal) (HDAC3; Conc. 4.57E-08 M): 285917; HDAC3 activity raw data (signal) (HDAC3; Conc. 5.08E-09 M): 409923; IC50 (HDAC2 [2]): 0.095 µM |
